Reference: patent US20100111972A1, “Method for preventing or treating opiate tolerance and dependence” (priority 2008, published 2010)

Assays:
Format in all cases: in vivo, mice
CGRP = CGRP immunofluorescence in dorsal horn after morphine treatment and withdrawal; conditions: repeated morphine exposure (7 escalating i.p. doses)
Protocol: (§1) Mice were anesthetized and perfused transcardially with cold saline followed by ice-cold 4% paraformaldehyde solution. The lumbar segment of the SC was dissected out and post-fixed at 4° C. for 4 h with the paraformaldehyde solution, then the Histo Prep (Fisher Scientific, Fair Lawn, N.J.) embedded blocks were sectioned on a Leica CM1850 cryostat (Leica Microsystems, Germany). Sections (10 μm) were thaw-mounted on to glass slides and allowed to air dry. The immunofluorescence staining was performed as previously described (Kerr et al, 2000). Endogenous peroxidases were blocked by incubating tissue sections with 0.3% hydrogen peroxide for 30 min and 3% normal goat serum for 20 min. […]
(§2) The morphologic details of the immunofluorescence staining on SC were studied under a fluorescence microscope (Olympus BX51WI; Olympus America Inc., Melville, N.Y.). […] Fos-immunoreactive neurons were counted in blind fashion. The number of Fos-like immunoreactive neurons in DH (laminae I-VI) was determined by averaging the counts made in 20 SC sections (L4-L5) for each group. To obtain quantitative measurements of CGRP immunofluorescence, 15-20 fields covering the entire DH in each group were evaluated and photographed at the same exposure time to generate the raw data. Fluorescence intensities of the different groups were analyzed using MicroSuite image analysis software (Olympus America Inc.). […]

EphB1 receptor protein = experiment: Western blot of EphB1 receptor protein in spinal cord; conditions: SC
Protocol: (§3) Western blot analysis was used to detect expression of EphB receptors, ephrinBs, and phosphorylated NR2B, ERK and CREB proteins in the SC. A total of 108 mice were used for Western blotting experiments (SC from 4 mice were pooled for each sample and each group consisted of 3 samples). The lumbar segments of the SC were quickly extracted and immediately frozen in liquid nitrogen, and stored at −80° C. The procedure used to quantify temporal changes in protein levels was similar to that previously described (Bundesen et al, 2003). In brief, protein precipitation procedures in conjunction with Western blots were used to detect protein bands with an enhanced chemiluminescent (ECL) detection procedure. Sequential precipitation procedures were used on tissue samples that were lysed in ice-cold (4° C.) lysis buffer [50 mM Tris, pH 7.5, containing 150 mM NaCl, 1% Triton X-100, 0.5% deoxycholate, 0.1% SDS, 0.2 mM EDTA, 10 mM NaF, […], 0.4 mM 4-(2-aminoethyl)-benzenesulfonyl fluoride, and 1 mM sodium orthovanadate. The protein concentration of the lysates was estimated using the method of BCA (Pierce, Ill.), and the total protein content between samples was equalized. […] Data were analyzed with the Molecular Imager (Gel Doc™ XR, 170-8170) and the associated software Quantity One-4.6.5 (Bio-Rad Laboratories, Hercules, Calif.).

p-NR2B = experiment: Western blot of phosphorylated NR2B in spinal cord; conditions: escalated morphine treatment; SC
Protocol: as §3

p-ERK = experiment: Western blot of phosphorylated ERK in spinal cord; conditions: escalated morphine treatment; SC
Protocol: as §3

p-CREB = experiment: Western blot of phosphorylated CREB in spinal cord; conditions: escalated morphine treatment; SC
Protocol: as §3

ephrinB1 = experiment: Western blot of ephrinB1 in spinal cord; conditions: following escalating morphine treatment or morphine withdrawal; SC
Protocol: as §3

ephrinB2 = experiment: Western blot of ephrinB2 in spinal cord; conditions: following escalating morphine treatment or morphine withdrawal; SC
Protocol: as §3

[1] = test system: phosphotyrosine (PY99) proteins; experiment: Western blot of phosphotyrosine (PY99) proteins in spinal cord; conditions: following escalating morphine treatment or morphine withdrawal; SC
Protocol: as §3

c-Fos = c-Fos immunostaining in dorsal horn during morphine withdrawal; conditions: naloxone challenge after escalating morphine treatment
Protocol: as §1, §2

In the case of `CN1CC[C@]23c4c5ccc(O)c4O[C@H]2[C@@H](O)C=C[C@H]3[C@H]1C5` [morphine], the “expression of CGRP throughout the DH region of the SC” value (CGRP) is reported as “greatly increased”, the “expression of EphB1 receptor protein” value (EphB1 receptor protein; after escalating morphine treatment) is reported as “significantly increased” and the “level of p-NR2B protein” value (p-NR2B) is reported as “significant increases”. For the same compound, the “level of p-ERK protein” value (p-ERK) was “significant increases”, the “level of p-CREB protein” value (p-CREB) was “significant increases” and the “expression of ephrinB1” value (ephrinB1) was “failed to show significant changes”. For the same compound, the “expression of ephrinB2” value (ephrinB2) was “failed to show significant changes” and the “expression of phosphotyrosine (PY99) proteins” value [1] was “failed to show significant changes”.
In the case of `C=CCN1CC[C@]23c4c5ccc(O)c4O[C@H]2C(=O)CC[C@@]3(O)[C@H]1C5` [naloxone], the “number of Fos-like immunoreactive neurons in the dorsal horn” value (c-Fos) is reported as “significantly increased” and the “morphine-induced increase in EphB1 receptor protein expression” value (EphB1 receptor protein; naloxone treatment after escalating morphine) is reported as “did not significantly alter”.
